The values below come from patent US11191754B2, “Inhibitors of nucleotidyl transferases and uses in herpes and hepatitis viral infections therefor” (Saint Louis University, priority 2015, dated 2021).

Test [1] relates to HBV. In words: Chou-Talalay combination analysis with Lamivudine against HBV replication. Type of test: cell-based, hepatitis B virus. The settings on record: together with Lamivudine; CI <1.0 indicates synergy. The source says: Current nucleos(t)ide analog therapy for HBV has converted hepatitis type B from an implacably progressing illness to a controllable disease. However, patients are only very rarely cured, in part due to the incomplete inhibition of HBV replication. The inventors hypothesized that the novel RNaseH inhibitors would work synergistically with the existing nucleos(t)ide analogs because the two classes of drugs target physically distinct active sites on the viral polymerase protein. […] RNAseH inhibitors from two different chemical classes were employed, compound #1 [2-hydroxyisoquinoline-1,3(2H,4H)-dione], an HID, and #46 (β-thujaplicinol), an α-hydroxytropolone, were tested. Chou-Talaly analysis yields a combination index (CI). CI values <1.0 indicate synergy, CIs of approximately 1.0 indicate additive interactions, and CI values >1.0 indicate antagonism. CI values are calculated at various efficacy levels (EC50, EC75, EC90, and EC95), and a weighted CI value favoring higher efficacy levels is also generated. FIGS. 4A & 4B show the results of four experiments employing compound #1 and three with compound #46. […] Therefore, RNAseH inhibitors act strongly synergistically with an approved nucleos(t)ide analog drug against HBV.

In test [2] the test system is HBV RNAseH. In words: Biochemical RNAseH assay with patient-derived variant HBV RNAseH enzymes. On the set-up: species or system hepatitis B virus. The settings on record: four genotype D patient-derived enzymes; compound at its IC50 (FIGS. 5A & 5B). The method, then: RNaseH activity was measured using an oligonucleotide-directed RNA cleavage assay as previously described in Hu, et al., Tavis, et al., and Cai, et al. (2013; 2013; and 2014, respectfully). Briefly, 6 μL protein extract was mixed on ice with an internally ^32P-labeled 264 nt RNA derived from the Duck Hepatitis B Virus genome (DRF+ RNA) plus 3 μg oligonucleotide D2507- or its inverse-complement oligonucleotide D2526+ as a negative control. This mixture was incubated with test compounds in 50 mM Tris pH 8.0, 190 mM NaCl, 5 mM MgCl2, 3.5 mM DTT, 0.05% NP40, 6% glycerol, and 1% DMSO at 42° C. for 90 minutes. Cleavage products were resolved by denaturing polyacrylamide gel electrophoresis, detected by autoradiography, and quantified using ImageJ. Non-specific background values were determined from the incorrect oligonucleotide negative control lane and subtracted from all experimental values. IC50 values were then calculated with GraphPad Prism using three-parameter log(inhibitor) vs. response non-linear curve fitting with the curve minimum set to zero to reflect background subtraction.
HBV has 8 genotypes differing in sequence by 8%. Genetic diversity in the RNAseH domain is about 6%, which is easily high enough to modulate viral sensitivity to RNAseH inhibitors. […]

Test [3] concerns HBV. The following applies: HBV patients; cited from earlier work.

Consider `O=C1Cc2ccccc2C(=O)N1O` [#1, 2-hydroxyisoquinoline-1,3(2H,4H)-dione], for which the “weighted combination index (CI)” value in test [1] is given as 0.70±0.1. Also, in test [2], the “inhibition of HBV RNAseH” value was “about 50%”.

Take `CC(C)c1ccc(O)c(=O)c(O)c1` [#46, β-thujaplicinol]: the “weighted combination index (CI)” value in test [1] was found to be 0.44±0.3. In addition, in test [2], the “inhibition of HBV RNAseH” value was “about 50%”. Interferon α: the sustained clinical improvement in test [3] is recorded as 20-30 % of patients.
